Here are results for 45 compounds from patent publication US20240072809A1, “ASGPR-BINDING COMPOUNDS FOR THE DEGRADATION OF EXTRACELLULAR PROTEINS” (Avilar Therapeutics, Inc., priority 2020, published 2024).

Usually pKd stands for the negative decadic logarithm of the Kd, by convention in mol/L.

This assay concerns the target ASGPR (Homo sapiens (Human), UniProt P07306). Put plainly: Affinity to ASGPR measured by surface plasmon resonance (SPR). It counts as binding. Particulars: ASGPR ligands, Table 4, read-out: ASGPR_PR Binding KD. A general note: In SPR one partner is held on a chip, and binding of the other changes the refractive index at the surface.

pKd: −log10 of the molar value. Where two headings read alike, the source gives them in different places. Where only a bound is given, the exact number is not on record here.

Chain of ASGPR (P07306 whole entry): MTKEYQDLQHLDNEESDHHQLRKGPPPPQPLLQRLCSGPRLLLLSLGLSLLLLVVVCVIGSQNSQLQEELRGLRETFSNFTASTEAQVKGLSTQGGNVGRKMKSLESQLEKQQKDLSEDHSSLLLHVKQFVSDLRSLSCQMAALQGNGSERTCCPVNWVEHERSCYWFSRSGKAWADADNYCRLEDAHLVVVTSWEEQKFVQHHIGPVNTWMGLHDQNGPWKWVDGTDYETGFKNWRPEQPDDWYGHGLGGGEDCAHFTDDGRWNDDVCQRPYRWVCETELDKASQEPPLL

For the compound `OC[C@H]1OC[C@H](Nc2cnc(C(F)(F)F)cn2)[C@@H](O)[C@H]1O` [Compound A314], where the note is “numeric lower bounds”, the pKd is below 4.70.

In the case of `OC[C@H]1OC[C@H](Nc2cncc(C(F)(F)F)n2)[C@@H](O)[C@H]1O` [Compound A315], under “class symbols”, the pKd was above 4.00.

For `OC[C@H]1OC[C@H](Nc2ccc(Cl)nn2)[C@@H](O)[C@H]1O` [Compound A316], under “numeric lower bounds”, the pKd is below 4.70.

As to `OC[C@H]1OC[C@H](Nc2ccnc(Cl)n2)[C@@H](O)[C@H]1O` [Compound A317], the pKd (class symbols) was above 4.00.

`OC[C@H]1OC[C@H](Nc2ncccn2)[C@@H](O)[C@H]1O` [Compound A318]: for the setting “class symbols”, the negative logarithm of the Kd (pKd) was above 4.00.

Turning to `N#Cc1nc(Cl)cc(N[C@H]2CO[C@H](CO)[C@H](O)[C@@H]2O)n1` [Compound A320], where the note is “class symbols”, the pKd was above 4.00.

For the compound `OC[C@H]1OC[C@H](Nc2cc(Cl)ncn2)[C@@H](O)[C@H]1O` [Compound A321], under “class symbols”, the pKd is above 4.00.

In the case of `OC[C@H]1OC[C@H](Nc2nc3ccc(C(F)(F)F)cc3s2)[C@@H](O)[C@H]1O` [Compound A322], the pKd (numeric lower bounds) is below 4.70.

`COc1ccnc(N[C@H]2CO[C@H](CO)[C@H](O)[C@@H]2O)n1` [Compound A323]: the pKd (class symbols) was above 4.00.

Regarding `OC[C@H]1OC[C@H](Nc2ncc(Cl)c(C(F)(F)F)n2)[C@@H](O)[C@H]1O` [Compound A324], where the note is “class symbols”, the pKd is above 4.00.

Turning to `COc1nc(N[C@H]2CO[C@H](CO)[C@H](O)[C@@H]2O)nc(OC)n1` [Compound A325], for the setting “class symbols”, the pKd is above 4.00.

Regarding `COc1nc(C#N)cc(N[C@H]2CO[C@H](CO)[C@H](O)[C@@H]2O)n1` [Compound A326], under “class symbols”, the pKd was above 4.00.

Consider `COc1nc(Cl)cc(N[C@H]2CO[C@H](CO)[C@H](O)[C@@H]2O)n1` [Compound A327], for which the pKd (class symbols) was above 4.00.

Consider `OC[C@H]1OC[C@H](Nc2cc(Cl)nc(C(F)(F)F)n2)[C@@H](O)[C@H]1O` [Compound A328], for which the pKd (numeric lower bounds) was below 4.70.

Regarding `COc1nc(Cl)nc(N[C@H]2CO[C@H](CO)[C@H](O)[C@@H]2O)n1` [Compound A330], the pKd (class symbols) was above 4.00.

For `CSc1nc(Cl)cc(N[C@H]2CO[C@H](CO)[C@H](O)[C@@H]2O)n1` [Compound A331, (2R,3R,4R,5S)-5-((6-chloro-2-(methylthio)pyrimidin-4-yl)amino)-2-(hydroxymethyl)tetrahydro-2H-pyran-3,4-diol], the pKd (class symbols) is above 4.00.

As to `N#Cc1cccc(N[C@H]2CO[C@H](CO)[C@H](O)[C@@H]2O)n1` [Compound A332], the negative-log Kd (pKd) (class symbols) is above 4.00.

`COc1cc(N[C@H]2CO[C@H](CO)[C@H](O)[C@@H]2O)nc(C#N)n1` [Compound A333]: the pKd (numeric lower bounds) was below 5.00.

`Cc1cc(C(F)(F)F)nc(N[C@H]2CO[C@H](CO)[C@H](O)[C@@H]2O)n1` [Compound A334]: the pKd (class symbols) is above 4.00.

Take `OC[C@H]1OC[C@H](Nc2nccc(C(F)F)n2)[C@@H](O)[C@H]1O` [Compound A335]: under “class symbols”, the pKd was above 4.00.

In the case of `CSc1ccnc(N[C@H]2CO[C@H](CO)[C@H](O)[C@@H]2O)n1` [Compound A336], the pKd (class symbols) was above 4.00.

As to `CN1CCN(c2nsc(N[C@H]3CO[C@H](CO)[C@H](O)[C@@H]3O)n2)CC1` [Compound A338, (2R,3R,4R,5S)-2-(hydroxymethyl)-5-((3-(4-methylpiperazin-1-yl)-1,2,4-thiadiazol-5-yl)amino)tetrahydro-2H-pyran-3,4-diol], the pKd (class symbols) is above 4.00.

For the compound `CN(C)c1nsc(N[C@H]2CO[C@H](CO)[C@H](O)[C@@H]2O)n1` [Compound A339, (2R,3R,4R,5S)-5-((3-(dimethylamino)-1,2,4-thiadiazol-5-yl)amino)-2-(hydroxymethyl)tetrahydro-2H-pyran-3,4-diol], the pKd (class symbols) is above 4.00.

With `OC[C@H]1OC[C@H](Nc2nc(N3CCOCC3)ns2)[C@@H](O)[C@H]1O` [Compound A340, (2R,3R,4R,5S)-2-(hydroxymethyl)-5-((3-morpholino-1,2,4-thiadiazol-5-yl)amino)tetrahydro-2H-pyran-3,4-diol], the pKd (class symbols) is above 4.00.

Turning to `Nc1nsc(N[C@H]2CO[C@H](CO)[C@H](O)[C@@H]2O)n1` [Compound A341, (2R,3R,4R,5S)-5-((3-amino-1,2,4-thiadiazol-5-yl)amino)-2-(hydroxymethyl)tetrahydro-2H-pyran-3,4-diol], the pKd (class symbols) was above 4.00.

For `O=C(N[C@H]1CO[C@H](CO)[C@H](O)[C@@H]1O)c1ccccc1` [Compound A342, N-((3S,4R,5R,6R)-4,5-dihydroxy-6-(hydroxymethyl)tetrahydro-2H-pyran-3-yl)benzamide], the pKd (class symbols) is above 4.00.

In the case of `O=S(=O)(N[C@H]1CO[C@H](CO)[C@H](O)[C@@H]1O)C(F)(F)F` [Compound A344], the pKd (class symbols) was above 4.00.

Take `O=c1ccn([C@H]2CO[C@H](CO)[C@H](O)[C@@H]2O)cc1` [Compound A345, 1-((3S,4R,5R,6R)-4,5-dihydroxy-6-(hydroxymethyl)tetrahydro-2H-pyran-3-yl)pyridin-4(1H)-one]: the pKd (class symbols) is above 4.00.

On to `COc1cc(C#N)nc(N[C@H]2CO[C@H](CO)[C@H](O)[C@@H]2O)n1` [Compound A346, 2-(((3S,4R,5R,6R)-4,5-dihydroxy-6-(hydroxymethyl)tetrahydro-2H-pyran-3-yl)amino)-6-methoxypyrimidine-4-carbonitrile], for which the pKd (class symbols) was above 4.00.

Turning to `N#Cc1cc(N[C@H]2CO[C@H](CO)[C@H](O)[C@@H]2O)nc(C#N)n1` [Compound A348, 6-(((3S,4R,5R,6R)-4,5-dihydroxy-6-(hydroxymethyl)tetrahydro-2H-pyran-3-yl)amino)pyrimidine-2,4-dicarbonitrile], the pKd (numeric lower bounds) is below 4.70.

`COc1nc(C#N)nc(N[C@H]2CO[C@H](CO)[C@H](O)[C@@H]2O)n1` [Compound A349, 4-(((3S,4R,5R,6R)-4,5-dihydroxy-6-(hydroxymethyl)tetrahydro-2H-pyran-3-yl)amino)-6-methoxy-1,3,5-triazine-2-carbonitrile]: the pKd (class symbols) was above 4.00.

In the case of `COc1cc(N2CCN(C)CC2)nc(N[C@H]2CO[C@H](CO)[C@H](O)[C@@H]2O)n1` [Compound A350, (2R,3R,4R,5S)-2-(hydroxymethyl)-5-((4-methoxy-6-(4-methylpiperazin-1-yl)pyrimidin-2-yl)amino)tetrahydro-2H-pyran-3,4-diol], the pKd (numeric lower bounds) is below 4.70.

Consider `CSc1cc(N[C@H]2CO[C@H](CO)[C@H](O)[C@@H]2O)nc(C#N)n1` [Compound A351, 4-(((3S,4R,5R,6R)-4,5-dihydroxy-6-(hydroxymethyl)tetrahydro-2H-pyran-3-yl)amino)-6-(methylthio)pyrimidine-2-carbonitrile], for which the pKd (numeric lower bounds) was below 4.70.

`CSc1cc(N[C@H]2CO[C@H](CO)[C@H](O)[C@@H]2O)nc(C(N)=O)n1` [Compound A352, 4-(((3S,4R,5R,6R)-4,5-dihydroxy-6-(hydroxymethyl)tetrahydro-2H-pyran-3-yl)amino)-6-(methylthio)pyrimidine-2-carboxamide]: the pKd (numeric lower bounds) is below 4.70.

Take `OC[C@H]1OC[C@H](Nc2nc3ccccc3s2)[C@@H](O)[C@H]1O` [Compound A354, (2R,3R,4R,5S)-5-(benzo[d]thiazol-2-ylamino)-2-(hydroxymethyl)tetrahydro-2H-pyran-3,4-diol]: the pKd (class symbols) is above 4.00.

`OC[C@H]1OC[C@H](Nc2cccc(C(F)(F)F)c2)[C@@H](O)[C@H]1O` [Compound A355, (2R,3R,4R,5S)-2-(hydroxymethyl)-5-((3-(trifluoromethyl)phenyl)amino) tetrahydro-2H-pyran-3,4-diol]: the pKd (class symbols) was above 4.00.

For the compound `OC[C@H]1OC[C@H](Nc2cc(C(F)(F)F)ccn2)[C@@H](O)[C@H]1O` [Compound A356, (2R,3R,4R,5S)-2-(hydroxymethyl)-5-((4-(trifluoromethyl)pyridin-2-yl)amino)tetrahydro-2H-pyran-3,4-diol], under “numeric lower bounds”, the pKd was below 4.70.

For `OC[C@H]1OC[C@H](Nc2nc(-c3cccnc3)ns2)[C@@H](O)[C@H]1O` [Compound A358, (2R,3R,4R,5S)-2-(hydroxymethyl)-5-((3-(pyridin-3-yl)-1,2,4-thiadiazol-5-yl)amino)tetrahydro-2H-pyran-3,4-diol], the pKd (class symbols) was above 4.00.

In the case of `COc1cc(N[C@H]2CO[C@H](CO)[C@H](O)[C@@H]2O)nc(C(F)(F)F)n1` [Compound A359, (2R,3R,4R,5S)-2-(hydroxymethyl)-5-((6-methoxy-2-(trifluoromethyl)pyrimidin-4-yl)amino)tetrahydro-2H-pyran-3,4-diol], the pKd (class symbols) was above 4.00.

As to `COc1cc(N[C@H]2CO[C@H](CO)[C@H](O)[C@@H]2O)nc(OC)n1` [Compound A363, (2R,3R,4R,5S)-5-((2,6-dimethoxypyrimidin-4-yl)amino)-2-(hydroxymethyl) tetrahydro-2H-pyran-3,4-diol], the pKd (class symbols) was above 4.00.

Regarding `COc1cc(C#N)cc(N[C@H]2CO[C@H](CO)[C@H](O)[C@@H]2O)n1` [Compound A364, 2-(((3S,4R,5R,6R)-4,5-dihydroxy-6-(hydroxymethyl)tetrahydro-2H-pyran-3-yl)amino)-6-methoxyisonicotinonitrile], for the setting “class symbols”, the pKd was above 4.00.

With `COc1cc(C(N)=O)cc(N[C@H]2CO[C@H](CO)[C@H](O)[C@@H]2O)n1` [Compound A365, 2-(((3S,4R,5R,6R)-4,5-dihydroxy-6-(hydroxymethyl)tetrahydro-2H-pyran-3-yl)amino)-6-methoxyisonicotinamide], the pKd (numeric lower bounds) is below 4.70.

Consider `CCOc1cc(Cl)nc(N[C@H]2CO[C@H](CO)[C@H](O)[C@@H]2O)n1` [Compound A367, (2R,3R,4R,5S)-5-((4-chloro-6-ethoxypyrimidin-2-yl)amino)-2-(hydroxymethyl)tetrahydro-2H-pyran-3,4-diol], for which, where the note is “class symbols”, the pKd was above 4.00.

On to `CCOc1cc(C#N)nc(N[C@H]2CO[C@H](CO)[C@H](O)[C@@H]2O)n1` [Compound A368, 2-(((3S,4R,5R,6R)-4,5-dihydroxy-6-(hydroxymethyl)tetrahydro-2H-pyran-3-yl)amino)-6-ethoxypyrimidine-4-carbonitrile], for which, under “numeric lower bounds”, the pKd is below 4.70.

As for `CS(=O)(=O)c1nc(Cl)cc(N[C@H]2CO[C@H](CO)[C@H](O)[C@@H]2O)n1` [Compound A370, (2R,3R,4R,5S)-5-((6-chloro-2-(methylsulfonyl)pyrimidin-4-yl)amino)-2-(hydroxymethyl)tetrahydro-2H-pyran-3,4-diol], the pKd (numeric lower bounds) is below 5.00.
